Measured values reported in patent publication US12310929B2, “Use of rasagiline for the treatment of restless legs syndrome” (TEVA PHARMACEUTICAL INDUSTRIES, LTD., priority 2006, dated 2025).
Read-outs that look alike come from different tables or passages of the source.

Tests used:
[1] = tested on: RLS subjects; details: for Optimal Sleep (Absolute Change) Mean / Optimal Sleep (Absolute Change) Median / Optimal Sleep (Percent Change) Mean / Optimal Sleep (Percent Change) Median / Optimal Sleep Scale Mean / Optimal Sleep Scale Median / Sleep Quantity (Absolute Change) Mean / Sleep Quantity (Absolute Change) Median / Sleep Quantity (Percent Change) Mean / Sleep Quantity (Percent Change) Median / Sleep Quantity (raw score) Mean / Sleep Quantity (raw score) Median / Sleep Snoring (Percent Change) Mean / Sleep Snoring (Percent Change) Median / Short of Breath Scale Mean / Short of Breath Scale Median / Sleep Adequacy (Absolute Change) Mean / Sleep Adequacy (Absolute Change) Median / Sleep Adequacy (Percent Change) Mean / Sleep Adequacy (Percent Change) Median / Sleep Adequacy Mean / Sleep Adequacy Median / Sleep Disturbance (Absolute Change) Mean / Sleep Disturbance (Absolute Change) Median / Sleep Disturbance (Percent Change) Mean / Sleep Disturbance (Percent Change) Median / Sleep Disturbance Scale Mean / Sleep Disturbance Scale Median / Sleep Problems Index I (Absolute Change) Mean / Sleep Problems Index I (Absolute Change) Median / Sleep Problems Index I (Percent Change) Mean / Sleep Problems Index I (Percent Change) Median / Sleep Problems Index I Mean / Sleep Problems Index I Median / Sleep Problems Index II (Absolute Change) Mean / Sleep Problems Index II (Absolute Change) Median / Sleep Problems Index II (Percent Change) Mean / Sleep Problems Index II (Percent Change) Median / Sleep Problems Index II Mean / Sleep Problems Index II Median / Sleep Short of Breath (Absolute Change) Mean / Sleep Short of Breath (Absolute Change) Median / Sleep Snoring (Absolute Change) Mean / Sleep Snoring (Absolute Change) Median / Sleep Somnolence (Absolute Change) Mean / Sleep Somnolence (Absolute Change) Median / Sleep Somnolence (Percent Change) Mean / Sleep Somnolence (Percent Change) Median / Snoring Scale Mean / Snoring Scale Median / Somnolence Scale Mean / Somnolence Scale Median: rasagiline 1 mg/day oral
Description: (§1) This was the first clinical study in which rasagiline was administered to RLS subjects. The dosage regimen of 1 mg/day rasagiline was chosen based on the optimal dosage regimen for the symptomatic treatment of PD. […] Therefore, in the event that a subject could not tolerate the 1 mg daily dose of rasagiline, a daily dose of 0.5 mg rasagiline was permitted. Rasagiline was administered orally as a tablet. Both the 1 mg and 0.5 mg rasagiline tablets were beveled round tablets, flat, white to off-white, scored on one side, plain on the other side. Teva Pharmaceutical Industries Ltd. was responsible for the manufacture and primary packaging of study medications according to current Good Manufacturing Practice (cGMP) principles and guidelines applicable to investigational medicinal products.
The Sleep Scale is a 12-item scale that provides a comprehensive view across almost all dimensions of sleep including daytime somnolence, sleep disturbance, sleep adequacy and sleep quantity. The investigator scored subjects on this scale at the baseline and Week 4, and 8 visits. The change from baseline to each post-baseline study visit was calculated as a secondary efficacy endpoint. (Hays, R. D. & Steward, A. L. (1992). Sleep measures. In A. L. Stewart & J. E. Ware (eds.), Measuring functioning and well-being: The Medical Outcomes Study approach (pp. 235-259), Durham, NC: Duke University Press.
N is the number of participants in the study. A low score indicates the absence of problems and a high score indicates a very severe problem.

[2] = tested on: RLS subjects; details: for CGI-I Total Mean / CGI-I Total Median: scale 1-7, rasagiline 1 mg/day oral
Description: as §1
Subjects were scored on this scale at weeks 2, 4, and 8. The mean score at each of these time points was calculated as a secondary efficacy endpoint.

[3] = tested on: old rats with periodic hindlimb movements; details: daily treatment; 3 consecutive nights beginning 7 days after onset; vs vehicle-treated rats
Description: In a group of old rats 16-20 months, sleep-wake behavior is recorded and hindlimb movements are detected by means of a magneto-inductive device during two 12-h light periods (Baier P. C. et al., Assessment of spontaneously occurring periodic limb movements in sleep in the rat, J. Neurol. Sci. 2002; 198(1-2): 71-77). Periodic hindlimb movements (PHLM) during nonrapid eye movement sleep (NREM) are identified according to modified human criteria in some of the rats, which are then selected for the rasagiline study. Half the rats are treated daily with rasagiline while the other half receive vehicle. Incidence of PHLM is determined for 3 consecutive nights, beginning 7 days after onset of treatment.

[4] = by eight weeks, remaining subject

Structure (SMILES): C#CCN[C@@H]1CCc2ccccc21 [rasagiline, R-(+)-N-propargyl-1-aminoindan]
- Optimal Sleep (Absolute Change) Mean ([1]; VISIT WEEK 4, N=1): 0.00
- Optimal Sleep (Absolute Change) Median ([1]; VISIT WEEK 4, N=1): 0.00
- Optimal Sleep (Percent Change) Mean ([1]; VISIT WEEK 4, N=1): 0.00%
- Optimal Sleep (Percent Change) Median ([1]; VISIT WEEK 4, N=1): 0.00%
- Optimal Sleep Scale Mean ([1]; VISIT WEEK 4, N=1): 1.00
- Optimal Sleep Scale Median ([1]; VISIT WEEK 4, N=1): 1.00
- Sleep Quantity (Absolute Change) Mean ([1]; VISIT WEEK 4, N=1): 0.00
- Sleep Quantity (Absolute Change) Median ([1]; VISIT WEEK 4, N=1): 0.00
- Sleep Quantity (Percent Change) Mean ([1]; VISIT WEEK 4, N=1): 0.00%
- Sleep Quantity (Percent Change) Median ([1]; VISIT WEEK 4, N=1): 0.00%
- Sleep Quantity (raw score) Mean ([1]; VISIT WEEK 4, N=1): 7.00
- Sleep Quantity (raw score) Median ([1]; VISIT WEEK 4, N=1): 7.00
- Sleep Snoring (Percent Change) Mean ([1]; VISIT WEEK 4, N=1): 0.00%
- Sleep Snoring (Percent Change) Median ([1]; VISIT WEEK 4, N=1): 0.00%
- Short of Breath Scale Mean ([1]; VISIT WEEK 4, N=2): 0.00
- Short of Breath Scale Median ([1]; VISIT WEEK 4, N=2): 0.00
- Sleep Adequacy (Absolute Change) Mean ([1]; VISIT WEEK 4, N=2): 15.00
- Sleep Adequacy (Absolute Change) Median ([1]; VISIT WEEK 4, N=2): 15.00
- Sleep Adequacy (Percent Change) Mean ([1]; VISIT WEEK 4, N=2): 25.00%
- Sleep Adequacy (Percent Change) Median ([1]; VISIT WEEK 4, N=2): 25.00%
- Sleep Adequacy Mean ([1]; VISIT WEEK 4, N=2): 55.00
- Sleep Adequacy Median ([1]; VISIT WEEK 4, N=2): 55.00
- Sleep Disturbance (Absolute Change) Mean ([1]; VISIT WEEK 4, N=2): −7.50
- Sleep Disturbance (Absolute Change) Median ([1]; VISIT WEEK 4, N=2): −7.50
- Sleep Disturbance (Percent Change) Mean ([1]; VISIT WEEK 4, N=2): −20.00%
- Sleep Disturbance (Percent Change) Median ([1]; VISIT WEEK 4, N=2): −20.00%
- Sleep Disturbance Scale Mean ([1]; VISIT WEEK 4, N=2): 33.75
- Sleep Disturbance Scale Median ([1]; VISIT WEEK 4, N=2): 33.75
- Sleep Problems Index I (Absolute Change) Mean ([1]; VISIT WEEK 4, N=2): −6.67
- Sleep Problems Index I (Absolute Change) Median ([1]; VISIT WEEK 4, N=2): −6.67
- Sleep Problems Index I (Percent Change) Mean ([1]; VISIT WEEK 4, N=2): −40.00%
- Sleep Problems Index I (Percent Change) Median ([1]; VISIT WEEK 4, N=2): −40.00%
- Sleep Problems Index I Mean ([1]; VISIT WEEK 4, N=2): 26.67
- Sleep Problems Index I Median ([1]; VISIT WEEK 4, N=2): 26.67
- Sleep Problems Index II (Absolute Change) Mean ([1]; VISIT WEEK 4, N=2): −6.67
- Sleep Problems Index II (Absolute Change) Median ([1]; VISIT WEEK 4, N=2): −6.67
- Sleep Problems Index II (Percent Change) Mean ([1]; VISIT WEEK 4, N=2): 24.00%
- Sleep Problems Index II (Percent Change) Median ([1]; VISIT WEEK 4, N=2): −24.00%
- Sleep Problems Index II Mean ([1]; VISIT WEEK 4, N=2): 33.89
- Sleep Problems Index II Median ([1]; VISIT WEEK 4, N=2): 33.89
- Sleep Short of Breath (Absolute Change) Mean ([1]; VISIT WEEK 4, N=2): 0.00
- Sleep Short of Breath (Absolute Change) Median ([1]; VISIT WEEK 4, N=2): 0.00
- Sleep Snoring (Absolute Change) Mean ([1]; VISIT WEEK 4, N=2): 0.00
- Sleep Snoring (Absolute Change) Median ([1]; VISIT WEEK 4, N=2): 0.00
- Sleep Somnolence (Absolute Change) Mean ([1]; VISIT WEEK 4, N=2): −0.00
- Sleep Somnolence (Absolute Change) Median ([1]; VISIT WEEK 4, N=2): −0.00
- Sleep Somnolence (Percent Change) Mean ([1]; VISIT WEEK 4, N=2): −20.00%
- Sleep Somnolence (Percent Change) Median ([1]; VISIT WEEK 4, N=2): −20.00%
- Snoring Scale Mean ([1]; VISIT WEEK 4, N=2): 40.00
- Snoring Scale Median ([1]; VISIT WEEK 4, N=2): 40.00
- Somnolence Scale Mean ([1]; VISIT WEEK 4, N=2): 40.00
- Somnolence Scale Median ([1]; VISIT WEEK 4, N=2): 40.00
- Optimal Sleep (Absolute Change) Mean ([1]; VISIT WEEK 8, N=1): 0.00
- Optimal Sleep (Absolute Change) Median ([1]; VISIT WEEK 8, N=1): 0.00
- Optimal Sleep (Percent Change) Mean ([1]; VISIT WEEK 8, N=1): 0.00%
- Optimal Sleep (Percent Change) Median ([1]; VISIT WEEK 8, N=1): 0.00%
- Optimal Sleep Scale Mean ([1]; VISIT WEEK 8, N=1): 1.00
- Optimal Sleep Scale Median ([1]; VISIT WEEK 8, N=1): 1.00
- Short of Breath Scale Mean ([1]; VISIT WEEK 8, N=1): 0.00
- Short of Breath Scale Median ([1]; VISIT WEEK 8, N=1): 0.00
- Sleep Adequacy (Absolute Change) Mean ([1]; VISIT WEEK 8, N=1): 40.00
- Sleep Adequacy (Absolute Change) Median ([1]; VISIT WEEK 8, N=1): 40.00
- Sleep Adequacy (Percent Change) Mean ([1]; VISIT WEEK 8, N=1): 66.67%
- Sleep Adequacy (Percent Change) Median ([1]; VISIT WEEK 8, N=1): 66.67%
- Sleep Adequacy Mean ([1]; VISIT WEEK 8, N=1): 100.00
- Sleep Adequacy Median ([1]; VISIT WEEK 8, N=1): 100.00
- Sleep Disturbance (Absolute Change) Mean ([1]; VISIT WEEK 8, N=1): −16.25
- Sleep Disturbance (Absolute Change) Median ([1]; VISIT WEEK 8, N=1): −16.25
- Sleep Disturbance (Percent Change) Mean ([1]; VISIT WEEK 8, N=1): −43.33%
- Sleep Disturbance (Percent Change) Median ([1]; VISIT WEEK 8, N=1): −43.33%
- Sleep Disturbance Scale Mean ([1]; VISIT WEEK 8, N=1): 21.25
- Sleep Disturbance Scale Median ([1]; VISIT WEEK 8, N=1): 21.25
- Sleep Problems Index I (Absolute Change) Mean ([1]; VISIT WEEK 8, N=1): −16.67
- Sleep Problems Index I (Absolute Change) Median ([1]; VISIT WEEK 8, N=1): −16.67
- Sleep Problems Index I (Percent Change) Mean ([1]; VISIT WEEK 8, N=1): −100.00%
- Sleep Problems Index I (Percent Change) Median ([1]; VISIT WEEK 8, N=1): −100.00%
- Sleep Problems Index I Mean ([1]; VISIT WEEK 8, N=1): 0.00
- Sleep Problems Index I Median ([1]; VISIT WEEK 8, N=1): 0.00
- Sleep Problems Index II (Absolute Change) Mean ([1]; VISIT WEEK 8, N=1): −16.11
- Sleep Problems Index II (Absolute Change) Median ([1]; VISIT WEEK 8, N=1): −16.11
- Sleep Problems Index II (Percent Change) Mean ([1]; VISIT WEEK 8, N=1): −58.00%
- Sleep Problems Index II (Percent Change) Median ([1]; VISIT WEEK 8, N=1): −58.00%
- Sleep Problems Index II Mean ([1]; VISIT WEEK 8, N=1): 11.67
- Sleep Problems Index II Median ([1]; VISIT WEEK 8, N=1): 11.67
- Sleep Quantity (Absolute Change) Mean ([1]; VISIT WEEK 8, N=1): 0.00
- Sleep Quantity (Absolute Change) Median ([1]; VISIT WEEK 8, N=1): 0.00
- Sleep Quantity (Percent Change) Mean ([1]; VISIT WEEK 8, N=1): 0.00%
- Sleep Quantity (Percent Change) Median ([1]; VISIT WEEK 8, N=1): 0.00%
- Sleep Quantity (raw score) Mean ([1]; VISIT WEEK 8, N=1): 7.00
- Sleep Quantity (raw score) Median ([1]; VISIT WEEK 8, N=1): 7.00
- Sleep Short of Breath (Absolute Change) Mean ([1]; VISIT WEEK 8, N=1): 0.00
- Sleep Short of Breath (Absolute Change) Median ([1]; VISIT WEEK 8, N=1): 0.00
- Sleep Snoring (Absolute Change) Mean ([1]; VISIT WEEK 8, N=1): 20.00
- Sleep Snoring (Absolute Change) Median ([1]; VISIT WEEK 8, N=1): 20.00
- Sleep Snoring (Percent Change) Mean ([1]; VISIT WEEK 8, N=1): 25.00%
- Sleep Snoring (Percent Change) Median ([1]; VISIT WEEK 8, N=1): 25.00%
- Sleep Somnolence (Absolute Change) Mean ([1]; VISIT WEEK 8, N=1): 0.00
- Sleep Somnolence (Absolute Change) Median ([1]; VISIT WEEK 8, N=1): 0.00
- Sleep Somnolence (Percent Change) Mean ([1]; VISIT WEEK 8, N=1): 0.00%
- Sleep Somnolence (Percent Change) Median ([1]; VISIT WEEK 8, N=1): 0.00%
- Snoring Scale Mean ([1]; VISIT WEEK 8, N=1): 100.00
- Snoring Scale Median ([1]; VISIT WEEK 8, N=1): 100.00
- Somnolence Scale Mean ([1]; VISIT WEEK 8, N=1): 13.33
- Somnolence Scale Median ([1]; VISIT WEEK 8, N=1): 13.33
- improvement in the Sleep Problems Index II [1, 4]: 58%
- CGI-I Total Mean ([2]; VISIT WEEK 2, N=2): 3.50
- CGI-I Total Median ([2]; VISIT WEEK 2, N=2): 3.0
- CGI-I Total Mean ([2]; VISIT WEEK 4, N=2): 3.50
- CGI-I Total Median ([2]; VISIT WEEK 4, N=2): 3.50
- CGI-I Total Mean ([2]; VISIT WEEK 8, N=1): 1.00
- CGI-I Total Median ([2]; VISIT WEEK 8, N=1): 4.00
- RLS symptoms on the CGI-I rating scale [2, 4]: Very Much Improved
- incidence of periodic hindlimb movements (PHLM) [3]: significantly fewer
